Laboratory results: ChEMBL document CHEMBL1201862, “PubChem BioAssay data set” (2004)
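Cells were grown in 96-well plates and exposed to each compound for 48 hours at five concentrations; endpoints were interpolated linearly between bracketing concentrations, or set to the highest concentration if not reached. GI50 marks 50% less growth.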 Calls of active or inactive are those of the source. No stated cut-off is given here; in the data, active = GI50 up to about 1.1 µM and inactive = higher.

Legend:
Assay in all cases: NCI-60 cell line screen, 48 h
SF-539 = system: SF-539
OVCAR-5 = system: OVCAR-5
RPMI-8226 = system: RPMI-8226
SK-MEL-5 = system: SK-MEL-5
HT-29 = system: HT-29
OVCAR-4 = system: OVCAR-4
786-0 = system: 786-0
HOP-92 = system: HOP-92
OVCAR-3 = system: OVCAR-3
ACHN = system: ACHN
CAKI-1 = system: CAKI-1
NCI-H460 = system: NCI-H460
NCI/ADR-RES = system: NCI/ADR-RES
SW-620 = system: SW-620
HCC 2998 = system: HCC 2998
NCI-H226 = system: NCI-H226
COLO 205 = system: COLO 205
UACC-257 = system: UACC-257
NCI-H23 = system: NCI-H23
UO-31 = system: UO-31

In the case of `COC(=O)Nc1nc2ccc(S(=O)(=O)SC)cc2[nH]1`, the GI50 (SF-539) was 4 µM (inactive), the GI50 (OVCAR-5) was 11.6 µM (inactive) and the GI50 (RPMI-8226) was 3.84 µM (inactive). For the same compound, the GI50 (SK-MEL-5) was 5.28 µM (inactive), the GI50 (HT-29) was 3.28 µM (inactive) and the GI50 (OVCAR-4) was 11.9 µM (inactive). For the same compound, the GI50 (786-0) was 5.09 µM (inactive), the GI50 (HOP-92) was 6.35 µM (inactive) and the GI50 (OVCAR-3) was 4.86 µM (inactive). For the same compound, the GI50 (ACHN) was 10.2 µM (inactive), the GI50 (CAKI-1) was 4.88 µM (inactive) and the GI50 (NCI-H460) was 5.2 µM (inactive). For the same compound, the GI50 (NCI/ADR-RES) was 3.61 µM (inactive), the GI50 (SW-620) was 3.73 µM (inactive) and the GI50 (HCC 2998) was 10.4 µM (inactive). For the same compound, the GI50 (NCI-H226) was 6.27 µM (inactive), the GI50 (COLO 205) was 4.28 µM (inactive) and the GI50 (UACC-257) was 10.8 µM (inactive).
In the case of `COC(=O)c1nc(-c2ccc3c(n2)C(=O)C(=N)C(OC)=C3O)c(N)c(-c2ccc(OC)c(OC)c2O)c1C`, the GI50 (SF-539) was 0.363 µM (active), the GI50 (OVCAR-5) was 2.14 µM (inactive) and the GI50 (RPMI-8226) was 1.21 µM (inactive). The GI50 (SK-MEL-5) was 0.413 µM (active), the GI50 (HT-29) was 1.73 µM (inactive) and the GI50 (OVCAR-4) was 1.66 µM (inactive). The GI50 (HOP-92) was 2.16 µM (inactive), the GI50 (NCI-H23) was 0.217 µM (active) and the GI50 (OVCAR-3) was 0.445 µM (active). The GI50 (CAKI-1) was 0.628 µM (active), the GI50 (NCI-H460) was < 0.01 µM (active) and the GI50 (NCI/ADR-RES) was 1.3 µM (inactive). For the same compound, the GI50 (SW-620) was 1.33 µM (inactive), the GI50 (UO-31) was 0.729 µM (active) and the GI50 (HCC 2998) was 0.128 µM (active). The GI50 (NCI-H226) was 0.324 µM (active), the GI50 (COLO 205) was 1.84 µM (inactive) and the GI50 (UACC-257) was 0.419 µM (active).
For `CC1C(c2ccc(N(C)C)cc2)c2cc3c(cc2OC1N1CCCC1)OCO3` (centres undefined), the GI50 (SF-539) was 21.7 µM (inactive), the GI50 (OVCAR-5) was > 87.1 µM (inactive) and the GI50 (RPMI-8226) was 36.1 µM (inactive). The GI50 (SK-MEL-5) was 30.6 µM (inactive), the GI50 (HT-29) was 32.5 µM (inactive) and the GI50 (OVCAR-4) was > 100 µM (inactive). The GI50 (786-0) was 43 µM (inactive), the GI50 (HOP-92) was 6.25 µM (inactive) and the GI50 (NCI-H23) was 58.3 µM (inactive). For the same compound, the GI50 (OVCAR-3) was 43.5 µM (inactive), the GI50 (ACHN) was > 72.9 µM (inactive) and the GI50 (CAKI-1) was 38.5 µM (inactive). For the same compound, the GI50 (NCI-H460) was 34.5 µM (inactive), the GI50 (NCI/ADR-RES) was 33.6 µM (inactive) and the GI50 (SW-620) was 42 µM (inactive). For the same compound, the GI50 (UO-31) was 30.8 µM (inactive), the GI50 (HCC 2998) was 34.6 µM (inactive) and the GI50 (COLO 205) was 45 µM (inactive). For the same compound, the GI50 (UACC-257) was > 92.5 µM (inactive).
With `C1=CN2C[n+]3ccc4ccccc4c3N=C2c2ccccc21` the GI50 (SF-539) was 3.25 µM (inactive), the GI50 (OVCAR-5) was 16.1 µM (inactive) and the GI50 (RPMI-8226) was 2.32 µM (inactive). The GI50 (SK-MEL-5) was 0.308 µM (active), the GI50 (HT-29) was 2.45 µM (inactive) and the GI50 (786-0) was 2.88 µM (inactive). For the same compound, the GI50 (HOP-92) was 2.04 µM (inactive), the GI50 (NCI-H23) was 2.76 µM (inactive) and the GI50 (OVCAR-3) was 0.652 µM (active). For the same compound, the GI50 (ACHN) was 23.3 µM (inactive), the GI50 (CAKI-1) was 15 µM (inactive) and the GI50 (NCI-H460) was 3.54 µM (inactive). For the same compound, the GI50 (NCI/ADR-RES) was 48.6 µM (inactive), the GI50 (SW-620) was 4.02 µM (inactive) and the GI50 (UO-31) was 21 µM (inactive). The GI50 (COLO 205) was 1.23 µM (inactive) and the GI50 (UACC-257) was 2.92 µM (inactive).
For `CO[C@@]12C[C@@H](C)C3=CCC(C)=C3CC1=C(C)C(=O)O2`, the GI50 (OVCAR-5) was > 100 µM (inactive), the GI50 (RPMI-8226) was 57.8 µM (inactive) and the GI50 (SK-MEL-5) was > 100 µM (inactive). For the same compound, the GI50 (HT-29) was > 100 µM (inactive), the GI50 (OVCAR-4) was > 100 µM (inactive) and the GI50 (786-0) was > 100 µM (inactive). For the same compound, the GI50 (HOP-92) was > 100 µM (inactive), the GI50 (NCI-H23) was > 100 µM (inactive) and the GI50 (OVCAR-3) was > 100 µM (inactive). The GI50 (ACHN) was > 100 µM (inactive), the GI50 (CAKI-1) was > 100 µM (inactive) and the GI50 (NCI-H460) was > 100 µM (inactive). The GI50 (NCI/ADR-RES) was > 100 µM (inactive), the GI50 (SW-620) was > 100 µM (inactive) and the GI50 (UO-31) was > 100 µM (inactive). For the same compound, the GI50 (HCC 2998) was > 100 µM (inactive), the GI50 (NCI-H226) was > 100 µM (inactive) and the GI50 (COLO 205) was > 100 µM (inactive). The GI50 (UACC-257) was > 100 µM (inactive).
In the case of `CCN1CCN(c2nc3ccccc3nc2C(=O)c2ccc(OC)c(OC)c2)CC1`, the GI50 (SF-539) was 1.73 µM (inactive), the GI50 (OVCAR-5) was 41.7 µM (inactive) and the GI50 (RPMI-8226) was 10.1 µM (inactive). For the same compound, the GI50 (HT-29) was 12.6 µM (inactive), the GI50 (OVCAR-4) was 10 µM (inactive) and the GI50 (786-0) was 10.7 µM (inactive). For the same compound, the GI50 (HOP-92) was 7.48 µM (inactive), the GI50 (NCI-H23) was 24.3 µM (inactive) and the GI50 (OVCAR-3) was 22.2 µM (inactive). For the same compound, the GI50 (ACHN) was 9.91 µM (inactive), the GI50 (CAKI-1) was 82.4 µM (inactive) and the GI50 (NCI-H460) was 6.81 µM (inactive). For the same compound, the GI50 (NCI/ADR-RES) was 1.6 µM (inactive), the GI50 (SW-620) was 15.7 µM (inactive) and the GI50 (UO-31) was 13.7 µM (inactive). For the same compound, the GI50 (HCC 2998) was 2.3 µM (inactive), the GI50 (NCI-H226) was 22.3 µM (inactive) and the GI50 (COLO 205) was 1.5 µM (inactive). For the same compound, the GI50 (UACC-257) was 21.9 µM (inactive).
With `CC1(C)OCC(C2OC3OC(C)(C)OC3C2c2ccccc2)O1` (centres undefined) the GI50 (SF-539) was 37.5 µM (inactive), the GI50 (OVCAR-5) was 91.6 µM (inactive) and the GI50 (RPMI-8226) was 48.8 µM (inactive). The GI50 (SK-MEL-5) was 17.1 µM (inactive), the GI50 (HT-29) was 39.6 µM (inactive) and the GI50 (OVCAR-4) was 41.4 µM (inactive). For the same compound, the GI50 (786-0) was 58.6 µM (inactive), the GI50 (HOP-92) was 17.6 µM (inactive) and the GI50 (NCI-H23) was 22.2 µM (inactive). For the same compound, the GI50 (OVCAR-3) was 34.4 µM (inactive), the GI50 (ACHN) was 51.9 µM (inactive) and the GI50 (NCI-H460) was 39.8 µM (inactive). The GI50 (NCI/ADR-RES) was 31.1 µM (inactive), the GI50 (SW-620) was 32.8 µM (inactive) and the GI50 (UO-31) was 44.8 µM (inactive). The GI50 (HCC 2998) was > 100 µM (inactive), the GI50 (NCI-H226) was 22.4 µM (inactive) and the GI50 (COLO 205) was 21.2 µM (inactive). For the same compound, the GI50 (UACC-257) was 36.1 µM (inactive).
